Key:
[1] = pK study in Wistar rats, aqueous suspensions by intramuscular route; format: in vivo, male wistar rats; settings: single IM dose, 3.6 mg equivalent risperidone base, aqueous suspension, figure-3
Description: A comparative evaluation of pharmacokinetic profile of Risperidone, Rispridone pamoate and Risperidone hemipamoate was carried out in male wistar rats. Aqueous suspension formulations of Risperidone base, Pamoate and hemipamoate salt containing 3.6 mg equivalent risperidone base were administered through intramuscular route. Each group (N=5) was administered a single dose. Blood samples were withdrawn at predefined time interval for measurement of Risperidone and 9-hydroxyrisperidone.

[2] = Intrinsic dissolution rate (disc method, HPLC analysis); format: physicochemical; settings: phosphate buffer saline, 37° C., 200 rpm; for Intrinsic dissolution rate: 50 mg disc, drug equivalent to risperidone dissolved per unit area per unit time
Description: The risperidone hemipamoate of example-1 has intrinsic dissolution rates much less than that compared to risperidone alone as disclosed herein below. The intrinsic dissolution rates were determined by preparing discs of sample (50 mg) and performing dissolution by mounting the sample on shaft of dissolution apparatus with help of disc adaptor. The dissolution was performed in phosphate buffer saline, at 37° C. and rotation of 200 rpm. Samples were withdrawn at regular interval and analyzed by high performance liquid chromatography. The intrinsic dissolution rate was calculated as amount of drug (equivalent to risperidone) dissolved per unit area per unit time.

[3] = poorly soluble salt suspended in aqueous vehicle, dogs; cited from earlier work

| SMILES | Absorption after IM administration [1] | Exposure duration compared to risperidone pamoate [1] | Plasma level course [1] | Intrinsic dissolution rate compared to risperidone alone [2] | Intrinsic dissolution rate [2] [mg/cm^2/h] | Period of effectiveness [3] |
| --- | --- | --- | --- | --- | --- | --- |
| Cc1nc2n(c(=O)c1CCN1CCC(c3noc4cc(F)ccc34)CC1)CCCC2.Cc1nc2n(c(=O)c1CCN1CCC(c3noc4cc(F)ccc34)CC1)CCCC2.O=C(O)c1cc2ccccc2c(Cc2c(O)c(C(=O)O)cc3ccccc23)c1O [Risperidone hemipamoate] | absorbed rapidly | remains sustained for longer duration | sustains for long duration comparatively | much less | 0.49 |  |
| Cc1nc2n(c(=O)c1CCN1CCC(c3noc4cc(F)ccc34)CC1)CCCC2 [Risperidone pamoate, reference compound] | absorbed rapidly |  | falls quickly |  |  | over 2 week |
| Cc1nc2n(c(=O)c1CCN1CCC(c3noc4cc(F)ccc34)CC1)CCCC2 [Risperidone, 3-[2-[4-(6-fluoro-1,2-benzisoxazol-3-yl)-1-piperidinyl]ethyl]-6,7,8,9-tetrahydro-2-methyl-4H-pyrido[1,2-a]pyrimidin-4-one] |  |  |  |  | 1.89 |  |

From patent publication US9040695B2, “Acid addition salts of risperidone and pharmaceutical compositions thereof” (TORRENT PHARMACEUTICALS LIMITED, priority 2011, dated 2015)
